Residue numbers refer to the chain shown, from its start. Like-named read-outs stand apart in the source and are kept apart here.
Experiments:
[1] = molecular target: T1, RET (658-1114) (Homo sapiens, UniProt P07949); experiment: HiBiT-Degradation, RET wild-type degradation assay (Nano-Glo HiBiT Lytic), 293T.144 cells; assay type: cell-based; details: for Emax / DC50: 6.0 hours
T1 construct: 658-1114; expressed in transfected cells; host or cells: 293T.144 (293T cells, generated in-house)
T1 sequence (P07949 658-1114): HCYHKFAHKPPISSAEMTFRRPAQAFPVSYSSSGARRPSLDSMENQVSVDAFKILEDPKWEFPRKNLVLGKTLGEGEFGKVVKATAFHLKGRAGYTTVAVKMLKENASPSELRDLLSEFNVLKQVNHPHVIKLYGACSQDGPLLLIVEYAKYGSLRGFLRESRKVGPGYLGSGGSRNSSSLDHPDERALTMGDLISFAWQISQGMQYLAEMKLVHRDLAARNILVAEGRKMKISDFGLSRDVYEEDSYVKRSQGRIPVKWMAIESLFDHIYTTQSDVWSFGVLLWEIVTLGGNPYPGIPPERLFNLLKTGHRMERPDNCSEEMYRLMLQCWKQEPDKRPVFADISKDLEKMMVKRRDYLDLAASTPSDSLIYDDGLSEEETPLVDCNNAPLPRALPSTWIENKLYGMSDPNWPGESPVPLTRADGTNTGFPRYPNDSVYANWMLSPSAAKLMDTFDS
Procedure, shortened: (§1)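 Cells were plated and dosed with an 11-point half-log series (highest 10 μM) in duplicate. After 6 hours they were lysed with HiBiT lytic detection reagent and luminescence measured. DC50 and percent remaining protein (Emax) came from the dose-response curves.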

[2] = molecular target: T2, RET(KD: 658-1114 G810R) (Homo sapiens, UniProt P07949, G810R); experiment: HiBiT-Degradation, RET G810R degradation assay (Nano-Glo HiBiT Lytic), 293T.165 cells; assay type: cell-based; details: for Emax / DC50: 6.0 hours
T2 construct: 658-1114; expressed in transfected cells; host or cells: 293T.165 (293T cells, generated in-house)
T2 sequence (P07949 658-1114 G810R): T1 sequence (P07949 658-1114) with G153R
Procedure, shortened: as §1

[3] = % remaining protein, read-out: 293T.144 RET (658-1114) 6.0 hours (Emax)
[4] = half-maximal degradation concentration, read-out: 293T.144 RET (658-1114) 6.0 hours (DC50)
[5] = % remaining protein, read-out: 293T.165 RET(KD: 658-1114 G810R) 6.0 hours (Emax)
[6] = half-maximal degradation concentration, read-out: 293T.165 RET(KD: 658-1114 G810R) 6.0 hours (DC50)
[7] = RET wild-type, read-out: HiBiT-Degradation 293T.144 RET (658-1114) 6.0 hours (DC50)
[8] = RET wild-type, read-out: HiBiT-Degradation 293T.144 RET (658-1114) 6.0 hours (Emax)
[9] = RET G810R, read-out: HiBiT-Degradation 293T.165 RET(KD: 658-1114 G810R) 6.0 hours (DC50)
[10] = RET G810R, read-out: HiBiT-Degradation 293T.165 RET(KD: 658-1114 G810R) 6.0 hours (Emax)

N#Cc1cnn2cc(-c3cnn([C@H]4CC[C@H](N5CCN(c6c(F)cc(NC7CCC(=O)NC7=O)cc6F)CC5)CC4)c3)nc(-c3ccc(N4CC5CC(C4)N5CC4CCC(F)(F)CC4)nc3)c12 (stereo partly drawn) [Compound 214, 4-[6-[6-[(4,4-difluorocyclohexyl)methyl]-3,6-diazabicyclo[3.1.1]heptan-3-yl]-3-pyridyl]-6-[1-[4-[4-[4-[(2,6-dioxo-3-piperidyl)amino]-2,6-difluoro-phenyl]piperazin-1-yl]cyclohexyl]pyrazol-4-yl]pyrazolo[1,5-a]pyrazine-3-carbonitrile]
293T.144 RET (658-1114) 6.0 hours (IP) [nM] [1]: ++++ (<50 nM = ++++)
Emax [1, 3]: < 30%
DC50 [1, 4]: < 0.05 µM
293T.165 RET(KD: 658-1114 G810R) 6.0 hours (IP) [nM] [2]: +++ (<100 nM = +++)
Emax [2, 5]: < 30%
DC50 [2, 6]: < 0.1 µM

N#Cc1cnn2cc(-c3cnn([C@H]4CC[C@@H](N5CCN(c6ccc(N[C@H]7CCC(=O)NC7=O)cc6F)CC5)CC4)c3)nc(-c3ccc(N4CC5CC(C4)N5C(=O)c4c(F)cccc4F)nc3)c12 (single isomer, unassigned) [Compound 171]
293T.144 RET (658-1114) 6.0 hours (IP) [nM] [1]: ++++ (<50 nM = ++++)
Emax [1, 3]: < 30%
DC50 [1, 4]: < 0.05 µM
293T.165 RET(KD: 658-1114 G810R) 6.0 hours (IP) [nM] [2]: ++++ (<50 nM = ++++)
Emax [2, 5]: < 30%
DC50 [2, 6]: < 0.05 µM

N#Cc1cnn2cc(-c3cnn(C4CCN(C(=O)CN5CCC(c6ccc(OC7CCC(=O)NC7=O)cc6F)CC5)CC4)c3)nc(-c3ccc(N4CCN(Cc5cc(F)ccn5)CC4)cc3)c12 (stereo not drawn) [Compound 38, 6-(1-(1-(2-(4-(4-((2,6-Dioxopiperidin-3-yl)oxy)-2-fluorophenyl)piperidin-1-yl)acetyl)piperidin-4-yl)-1H-pyrazol-4-yl)-4-(4-(4-((4-fluoropyridin-2-yl)methyl)piperazin-1-yl)phenyl)pyrazolo[1,5-a]pyrazine-3-carbonitrile]
293T.144 RET (658-1114) 6.0 hours (IP) [nM] ([1]; HiBiT-Degradation): ++++ (< 50 nM = ++++)
DC50 ([1]; HiBiT-Degradation, read-out: 293T.144 RET (658-1114) 6.0 hours (DC50)): < 0.05 µM
Emax ([1]; HiBiT-Degradation, read-out: 293T.144 RET (658-1114) 6.0 hours (Emax)): < 30%
Emax [2, 5]: < 50%
DC50 [2, 6]: < 0.1 µM
293T.165 RET(KD: 658-1114 G810R) 6.0 hours (Emax) ([2]; HiBiT-Degradation): +++ (<50% = +++)
293T.165 RET(KD: 658-1114 G810R) 6.0 hours (IP) [nM] ([2]; HiBiT-Degradation): ++++ (< 50 nM = ++++)
DC50 ([2]; HiBiT-Degradation, read-out: 293T.165 RET(KD: 658-1114 G810R) 6.0 hours (DC50)): < 0.1 µM

COc1ccc(CN2[C@@H]3COC[C@H]2CN(c2ccc(-c4nc(-c5cnn([C@H]6CC[C@@H](N7CCN(c8cc9c(cc8F)c(N8CCC(=O)NC8=O)nn9C)CC7)CC6)c5)cn5ncc(C#N)c45)cn2)C3)cn1 (single isomer, unassigned) [Compound 152]
293T.144 RET (658-1114) 6.0 hours (IP) [nM] [1]: ++++ (<50 nM = ++++)
Emax [1, 3]: < 30%
DC50 [1, 4]: < 0.05 µM
293T.165 RET(KD: 658-1114 G810R) 6.0 hours (IP) [nM] [2]: ++++ (<50 nM = ++++)
Emax [2, 5]: < 30%
DC50 [2, 6]: < 0.05 µM

CCC1(C(=O)NC2CCC2)CCN(c2ccc(-c3nc(-c4cnn(C5CCN([C@@H]6CCN(c7ccc(N[C@@H]8CCC(=O)NC8=O)cc7F)CC6(F)F)CC5)c4)cn4ncc(C#N)c34)cn2)CC1 (single isomer, unassigned) [Compound 192]
293T.144 RET (658-1114) 6.0 hours (IP) [nM] [1]: ++++ (<50 nM = ++++)
Emax [1, 3]: < 30%
DC50 [1, 4]: < 0.05 µM
293T.165 RET(KD: 658-1114 G810R) 6.0 hours (IP) [nM] [2]: +++ (<100 nM = +++)
Emax [2, 5]: < 30%
DC50 [2, 6]: < 0.1 µM

CCC1(C(=O)NC[C@H]2C[C@@H](F)C2)CCN(c2ccc(-c3nc(-c4cnn([C@H]5CC[C@H](N6CCN(c7ccc(NC8CCC(=O)NC8=O)cc7F)CC6)CC5)c4)cn4ncc(C#N)c34)cn2)CC1 (stereo partly drawn) [Compound 210, 1-[5-[3-cyano-6-[1-[4-[4-[4-[(2,6-dioxo-3-piperidyl)amino]-2-fluoro-phenyl]piperazin-1-yl]cyclohexyl]pyrazol-4-yl]pyrazolo[1,5-a]pyrazin-4-yl]-2-pyridyl]-4-ethyl-N-[(3-fluorocyclobutyl)methyl]piperidine-4-carboxamide]
293T.144 RET (658-1114) 6.0 hours (IP) [nM] [1]: ++++ (<50 nM = ++++)
Emax [1, 3]: < 30%
DC50 [1, 4]: < 0.05 µM
293T.165 RET(KD: 658-1114 G810R) 6.0 hours (IP) [nM] [2]: ++++ (<50 nM = ++++)
Emax [2, 5]: < 30%
DC50 [2, 6]: < 0.1 µM

CCC1(C(=O)NC2CCC2)CCN(c2ccc(-c3nc(-c4cnn(C5CCN(C(=O)CC6(O)CCN(c7ccc(NC8CCC(=O)NC8=O)cc7F)CC6)CC5)c4)cn4ncc(C#N)c34)cn2)CC1 (stereo not drawn) [Compound 81, 1-[5-[3-cyano-6-[1-[1-[2-[1-[4-[(2,6-dioxo-3-piperidyl)amino]-2-fluoro-phenyl]-4-hydroxy-4-piperidyl]acetyl]-4-piperidyl]pyrazol-4-yl]pyrazolo[1,5-a]pyrazin-4-yl]-2-pyridyl]-N-cyclobutyl-4-ethyl-piperidine-4-carboxamide]
HiBiT-Degradation 293T.144 RET (658-1114) 6.0 hours (IP) [nM] ([1]; RET wild-type): ++++ (< 50 nM = ++++)
DC50 [1, 7]: < 0.05 µM
Emax [1, 8]: < 30%
Emax [2, 5]: < 30%
DC50 [2, 6]: < 0.05 µM
HiBiT-Degradation 293T.165 RET(KD: 658-1114 G810R) 6.0 hours (IP) [nM] ([2]; RET G810R): ++++ (< 50 nM = ++++)
DC50 [2, 9]: < 0.05 µM
Emax [2, 10]: < 30%

CCC1(C(=O)NC2CCC2)CCN(c2ccc(-c3nc(-c4cnn([C@H]5C[C@](F)(CN6CCN(c7ccc(N[C@H]8CCC(=O)NC8=O)cc7F)CC6)C5)c4)cn4ncc(C#N)c34)cn2)CC1 [Compound 186, 1-[5-[3-cyano-6-[1-[3-[[4-[4-[[(3S)-2,6-dioxo-3-piperidyl]amino]-2-fluoro-phenyl]piperazin-1-yl]methyl]-3-fluoro-cyclobutyl]pyrazol-4-yl]pyrazolo[1,5-a]pyrazin-4-yl]-2-pyridyl]-N-cyclobutyl-4-ethyl-piperidine-4-carboxamide]
293T.144 RET (658-1114) 6.0 hours (IP) [nM] [1]: ++++ (<50 nM = ++++)
Emax [1, 3]: < 50%
DC50 [1, 4]: < 0.05 µM
293T.165 RET(KD: 658-1114 G810R) 6.0 hours (IP) [nM] [2]: ++++ (<50 nM = ++++)
Emax [2, 5]: < 50%
DC50 [2, 6]: < 0.05 µM

N#Cc1cnn2cc(-c3ccc(N4CCN(C(=O)CN5CCC(c6ccc(NC7CCC(=O)NC7=O)cc6F)CC5)CC4)nc3)cc(-c3ccc(N4CCN(Cc5ccccn5)CC4)nc3)c12 (stereo not drawn) [Compound 67, 6-[6-[4-[2-[4-[4-[(2,6-dioxo-3-piperidyl)amino]-2-fluoro-phenyl]-1-piperidyl]acetyl]piperazin-1-yl]-3-pyridyl]-4-[6-[4-(2-pyridylmethyl)piperazin-1-yl]-3-pyridyl]pyrazolo[1,5-a]pyridine-3-carbonitrile]
HiBiT-Degradation 293T.144 RET (658-1114) 6.0 hours (IP) [nM] ([1]; RET wild-type): ++++ (< 50 nM = ++++)
DC50 [1, 7]: < 0.05 µM
Emax [1, 8]: < 30%
Emax [2, 5]: < 50%
DC50 [2, 6]: < 0.1 µM
HiBiT-Degradation 293T.165 RET(KD: 658-1114 G810R) 6.0 hours (IP) [nM] ([2]; RET G810R): ++++ (< 50 nM = ++++)
DC50 [2, 9]: < 0.1 µM
Emax [2, 10]: < 50%

From US12661410B2, “Compounds for targeted degradation of RET” (C4 Therapeutics, Inc., priority 2020, dated 2026)
